System: MMP3 expression in the chondrosarcoma cell line SW1353
Assay: MMP-3 release from SW cells (MMP3 ELISA of cell culture supernatant)
Type: cell-based
Conditions: for MMP-3 release MW (OD 450 nm) / Relative values based on starting value: SW cells; for Relative values based on starting value: IL1α alone = 100
Experimental: For the analysis of the disease-modifying action of HOE140 in a cell culture model relevant to cartilage, the MMP3 expression was analyzed in the chondrosarcoma cell line SW1353 (ATCC: HTB 94). For the experiments, SW1353 cells were cultured under standard conditions (37° C., 5% CO2) in DMEM-Glutamax with 10% of fetal calf serum (FCS) in plastic culture bottles. After detrypsinization of the cells, 50,000 cells were inoculated per well of a 96-well flat-bottom plate in medium without FCS and preincubated with the compound HOE140 in an incubator. After one hour, the cells were stimulated by addition of human IL1-β (0.1 ng/mL, Roche) in a total volume of 300 μL. After incubation for 24 hours under standard conditions, the cell culture supernatant was taken off, centrifuged for 5 minutes and frozen at −20° C. until further analysis. The MMP3 expression in the cell culture supernatants was then analyzed by means of a commercial MMP3 ELISA test system (Amersham) according to the instructions of the manufacturer. In parallel to this, a WST cytotoxicity test was carried out with the remaining cells. For this the commercial test system of Roche was used and the measurement was carried out according to the instructions of the >manufacturer's protocol. […] Bradykinin increases the MMP3 release by more than 30%.

[1] = IL1α + bradykinin (0.1 μM) + 0.05 μM HOE140
[2] = IL1α + bradykinin (0.1 μM) + 0.1 μM HOE140
[3] = IL1α + bradykinin (0.1 μM) + 0.5 μM HOE140
[4] = IL1α + bradykinin (0.1 μM) + 1 μM HOE140

## D-arginyl-L-arginyl-L-prolyl-L-prolylglycyl-3-(2-thienyl)-L-alanyl-L-seryl-(3R)-1,2,3,4-tetrahydro-3-isoquinolinecarbonyl-(2S,3aS,7aS)-octahydro-1H-indole-2-carbonyl-L-arginine [HOE140]
SW1353 cells, IL1 + bradykinin
  inhibition of the bradykinin-increased release of MMP3 (in words): inhibited by HOE140 in a dose-dependent manner
[1]
  MMP-3 release MW (OD 450 nm): 458 OD 450 nm
  Relative values based on starting value: 139.6
[2]
  MMP-3 release MW (OD 450 nm): 371 OD 450 nm
  Relative values based on starting value: 113.1
[3]
  MMP-3 release MW (OD 450 nm): 309 OD 450 nm
  Relative values based on starting value: 94.2
[4]
  MMP-3 release MW (OD 450 nm): 306 OD 450 nm
  Relative values based on starting value: 93.3
